Measurements published in patent publication US9426989B2 (priority 2010, dated 2016).

Key:
Assay type in all cases: cell-based
BK Polyoma virus = test: Comparative data for inactivation with BPL: BK Polyoma virus; details: BPL 0.05%; 16 hours +2-8° C. (then 2 hours 37° C. for BPL hydrolysis)
[1] = test system: Enteroviruses (Coxsackie virus, Echovirus); test: Comparative data for inactivation with BPL: Enteroviruses; details: BPL 0.05%; 16 hours +2-8° C. (then 2 hours 37° C. for BPL hydrolysis)
[2] = test system: Mammalian orthoreovirus, type 3 (strain Dearing, ATCC VR-824)

Compound	LRV (BK Polyoma virus)	LRV [1]	Reduction (of reovirus titre) [2] [log 10]	reovirus inactivation, in words [2]
O=C1CCO1 [BPL, β-propiolactone]	2.1	4-5		
COO [Inactivator 072, Methylhydroperoxide]			0.9	performed poorly
